The source made the active and inactive calls. The calls are words filed in the database; no cut-off is given here.
Experiments:
[1] = molecular target: von Hippel-Lindau disease tumor suppressor/Nicotinamide phosphoribosyltransferase (Homo sapiens, UniProt P40337+P43490); experiment: (§1) PROTAC activity at VHL/NAMPT in human A2780 cells assessed as protein degradation measured after 24 hrs by Western blot analysis; assay type: cell-based
[2] = molecular target: T1, von Hippel-Lindau disease tumor suppressor/Nicotinamide phosphoribosyltransferase (Homo sapiens) (UniProt P43490+P40337); experiment: as §1; assay type: cell-based
T1 sequence (P40337 whole entry, looked up): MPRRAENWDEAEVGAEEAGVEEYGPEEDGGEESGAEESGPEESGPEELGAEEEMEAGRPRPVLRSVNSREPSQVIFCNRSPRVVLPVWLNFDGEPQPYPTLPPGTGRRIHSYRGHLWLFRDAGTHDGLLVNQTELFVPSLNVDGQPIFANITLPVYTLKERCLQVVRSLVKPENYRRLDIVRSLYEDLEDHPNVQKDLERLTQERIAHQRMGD
T1 sequence (P43490 whole entry, looked up): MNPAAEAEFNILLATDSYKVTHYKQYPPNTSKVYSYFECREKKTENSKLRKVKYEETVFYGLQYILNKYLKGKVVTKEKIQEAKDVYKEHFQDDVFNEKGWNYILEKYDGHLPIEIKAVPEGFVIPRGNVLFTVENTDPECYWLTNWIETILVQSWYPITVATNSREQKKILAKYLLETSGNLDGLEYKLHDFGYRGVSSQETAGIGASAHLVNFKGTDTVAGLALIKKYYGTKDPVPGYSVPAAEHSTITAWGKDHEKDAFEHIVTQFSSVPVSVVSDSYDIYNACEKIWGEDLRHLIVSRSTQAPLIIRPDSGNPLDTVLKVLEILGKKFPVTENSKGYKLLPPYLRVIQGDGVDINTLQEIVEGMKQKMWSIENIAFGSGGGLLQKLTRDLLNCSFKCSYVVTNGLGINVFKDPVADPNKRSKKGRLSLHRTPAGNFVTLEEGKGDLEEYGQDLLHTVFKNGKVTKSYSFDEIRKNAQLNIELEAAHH

[3] = Cytotoxicity activity against HUVEC cells assessed as cell growth inhibition; assay type: toxicity, cell-based; conditions: human
A2780 [4] = experiment: Antiproliferative activity against human A2780 cells assessed as cell growth inhibition; assay type: functional, cell-based
[5] = molecular target: Nicotinamide phosphoribosyltransferase (Homo sapiens, UniProt P43490); experiment: Inhibition of NAMPT (unknown origin)
Sequence of Nicotinamide phosphoribosyltransferase (P43490 whole entry): as the sequence (P43490 whole entry, looked up) above

[6] = molecular target: T1, von Hippel-Lindau disease tumor suppressor/Nicotinamide phosphoribosyltransferase (Homo sapiens); experiment: PROTAC activity at VHL/NAMPT in human A2780 cells assessed as protein degradation at 200 nM preincubated with carfilzomib followed by compound addition and measured after 24 hrs by Western blot analysis; assay type: cell-based
A2780 [7] = experiment: Induction of apoptosis in human A2780 cells assessed as total apoptotic cells at 1.6 nM incubated for 48 hrs by flow cytometry analysis (reference value: 9.27 %); assay type: functional
A2780 [8] = experiment: Induction of apoptosis in human A2780 cells assessed as total apoptotic cells at 40 nM incubated for 48 hrs by flow cytometry analysis (reference value: 9.27 %); assay type: functional
[9] = molecular target: T1, von Hippel-Lindau disease tumor suppressor/Nicotinamide phosphoribosyltransferase (Homo sapiens); experiment: PROTAC activity at VHL/NAMPT in human A2780 cells assessed as protein degradation at 200 nM preincubated with VHL-Boc followed by compound addition and measured after 24 hrs by Western blot analysis; assay type: cell-based
[10] = molecular target: T1, von Hippel-Lindau disease tumor suppressor/Nicotinamide phosphoribosyltransferase (Homo sapiens); experiment: PROTAC activity at VHL/NAMPT in human A2780 cells assessed as protein degradation at 200 nM preincubated with VHL-Ac followed by compound addition and measured after 24 hrs by Western blot analysis; assay type: cell-based
[11] = molecular target: T1, von Hippel-Lindau disease tumor suppressor/Nicotinamide phosphoribosyltransferase (Homo sapiens); experiment: PROTAC activity at VHL/NAMPT in human A2780 cells assessed as protein degradation at 200 nM preincubated with MG132 followed by compound addition and measured after 24 hrs by Western blot analysis; assay type: cell-based
[12] = molecular target: T1, von Hippel-Lindau disease tumor suppressor/Nicotinamide phosphoribosyltransferase (Homo sapiens); experiment: PROTAC activity at VHL/NAMPT in human A2780 cells assessed as protein degradation at 200 nM preincubated with NAMPT inhibitor, FK866 followed by compound addition and measured after 24 hrs by Western blot analysis; assay type: cell-based
[13] = molecular target: T1, von Hippel-Lindau disease tumor suppressor/Nicotinamide phosphoribosyltransferase (Homo sapiens); experiment: PROTAC activity at VHL/NAMPT in human A2780 cells assessed as protein degradation at 200 nM by Western blot analysis; assay type: cell-based; conditions: TDE = time-dependent effect
A2780 [14] = experiment: Induction of apoptosis in human A2780 cells assessed as total apoptotic cells at 1000 nM incubated for 48 hrs by flow cytometry analysis (reference value: 9.27 %); assay type: functional
[15] = molecular target: T1, von Hippel-Lindau disease tumor suppressor/Nicotinamide phosphoribosyltransferase (Homo sapiens); experiment: PROTAC activity at VHL/NAMPT in human A2780 cells assessed as protein degradation at 200 nM preincubated with MLN4924 followed by compound addition and measured after 24 hrs by Western blot analysis; assay type: cell-based
[16] = molecular target: T1, von Hippel-Lindau disease tumor suppressor/Nicotinamide phosphoribosyltransferase (Homo sapiens); experiment: PROTAC activity at VHL/NAMPT in human A2780 cells assessed as protein degradation at 200 nM measured after 24 hrs by Western blot analysis relative to control; assay type: cell-based

Sequence of von Hippel-Lindau disease tumor suppressor/Nicotinamide phosphoribosyltransferase (P43490 whole entry): as the sequence (P43490 whole entry, looked up) above
Sequence of von Hippel-Lindau disease tumor suppressor/Nicotinamide phosphoribosyltransferase (P40337 whole entry): as the sequence (P40337 whole entry, looked up) above

| Structure (SMILES) | EC50 [1] [nM] | Activity [2] | IC50 (A2780 [4]) [nM] | IC50 [5] [nM] | IC50 [3] [nM] | other results |
| --- | --- | --- | --- | --- | --- | --- |
| Cc1ncsc1-c1ccc([C@H](C)NC(=O)[C@@H]2C[C@@H](O)CN2C(=O)[C@@H](NC(=O)CCCCCCCCCCNC(=O)c2ccc(C(=O)N3CCC(CCCCNC(=O)/C=C/c4cccnc4)CC3)cc2)C(C)(C)C)cc1 | 111 | – | 41.1 | 1.47 | 2.23 | – |
| Cc1ncsc1-c1ccc([C@H](C)NC(=O)[C@@H]2C[C@@H](O)CN2C(=O)[C@@H](NC(=O)CCCCCCCCCNC(=O)c2ccc(C(=O)N3CCC(CCCCNC(=O)/C=C/c4cccnc4)CC3)cc2)C(C)(C)C)cc1 | > 500 | – | 69.2 | 7.3 | 1.51 | – |
| Cc1ncsc1-c1ccc([C@H](C)NC(=O)[C@@H]2C[C@@H](O)CN2C(=O)[C@@H](NC(=O)CCCCCCCCNC(=O)c2ccc(C(=O)N3CCC(CCCCNC(=O)/C=C/c4cccnc4)CC3)cc2)C(C)(C)C)cc1 | 54.4 | Dose-Dependent Effect | 37.9 | 3.12 | 0.9 | – |
| Cc1ncsc1-c1ccc([C@H](C)NC(=O)[C@@H]2C[C@@H](O)CN2C(=O)[C@@H](NC(=O)CCCCCCCNC(=O)c2ccc(C(=O)N3CCC(CCCCNC(=O)/C=C/c4cccnc4)CC3)cc2)C(C)(C)C)cc1 | 31.7 | Dose-Dependent Effect | 30.6 | 2.14 | 0.3 | Activity [6]: inactive; Activity (A2780 [7]): 10.15%; Activity (A2780 [8]): 14.57%; Activity [9]: inactive; Activity [10]: inactive; Activity [11]: inactive; Activity [12]: inactive; Activity [13]: Tde; Activity (A2780 [14]): 20.81%; Activity [15]: inactive; Activity [16]: 78% |
| Cc1ncsc1-c1ccc([C@H](C)NC(=O)[C@@H]2C[C@@H](O)CN2C(=O)[C@@H](NC(=O)CCCNC(=O)c2ccc(C(=O)N3CCC(CCCCNC(=O)/C=C/c4cccnc4)CC3)cc2)C(C)(C)C)cc1 | – | – | 33.7 | 1.53 | 1.05 | – |

Now those with a lower IC50 (A2780 [4]), led by results:

| EC50 [1] [nM] | Activity [2] | IC50 (A2780 [4]) [nM] | IC50 [5] [nM] | Structure (SMILES) | IC50 [3] [nM] | other results |
| --- | --- | --- | --- | --- | --- | --- |
| 56 | Dose-Dependent Effect | 5.9 | 1.59 | Cc1ncsc1-c1ccc([C@H](C)NC(=O)[C@@H]2C[C@@H](O)CN2C(=O)[C@@H](NC(=O)CCCCCCNC(=O)c2ccc(C(=O)N3CCC(CCCCNC(=O)/C=C/c4cccnc4)CC3)cc2)C(C)(C)C)cc1 | 0.07 | – |
| 189 | Dose-Dependent Effect | 3 | 2.67 | Cc1ncsc1-c1ccc([C@H](C)NC(=O)[C@@H]2C[C@@H](O)CN2C(=O)[C@@H](NC(=O)CCCCNC(=O)c2ccc(C(=O)N3CCC(CCCCNC(=O)/C=C/c4cccnc4)CC3)cc2)C(C)(C)C)cc1 | 0.21 | – |
| – | – | < 3 | – | O=C(/C=C/c1cccnc1)NCCCCC1CCN(C(=O)c2ccccc2)CC1 [DAPORINAD] | < 0.001 | Activity (A2780 [7]): 10.22%; Activity (A2780 [8]): 16.3%; Activity (A2780 [14]): 26.84% |
| 293 | Dose-Dependent Effect | 2.4 | 5.59 | Cc1ncsc1-c1ccc([C@H](C)NC(=O)[C@@H]2C[C@@H](O)CN2C(=O)[C@@H](NC(=O)CCCCCNC(=O)c2ccc(C(=O)N3CCC(CCCCNC(=O)/C=C/c4cccnc4)CC3)cc2)C(C)(C)C)cc1 | 0.45 | – |
| – | – | < 4 | – | Cc1ncsc1-c1ccc([C@H](C)NC(=O)[C@@H]2C[C@@H](O)CN2C(=O)[C@@H](NC(=O)COCCOCCOCCOCCNC(=O)c2ccc(CN3CCN(S(=O)(=O)c4ccc(NC(=S)NCc5cccnc5)cc4)CC3)cc2)C(C)(C)C)cc1 | – | – |
